In US20160363580A1, “Methods of Metabolic Kinetic Phenotyping and Uses Thereof” (The Texas A&M University System, priority 2015, published 2016):

Assay: Pulse tracer protocol (bolus L-[15N]-Phe), two compartmental model of Phe kinetics
Type: in vivo, pigs
Conditions: for EC Phe pool (extracellular Phe pool, Q1) / Flux of Phe between intra- and extracellular pool (F12, F21) / Frac. irr. loss (fractional irreversible loss of Phe from the intracellular pool, k02) / IC Phe pool (intracellular Phe pool, Q2) / IC Phe release (fractional intracellular release to extracellular pool, k12) / IC Phe uptake (fractional intracellular uptake from extracellular pool, k21) / Irr. loss (irreversible loss of Phe from the intracellular pool, F02): mean±SEM; for Q1 plasma pool size, mean value: SAAM II fit
Experimental: Female Yorkshire cross/domestic pigs (20-25 kg BW) were used in the experimental studies. The pigs were housed in steel pens (2 m×3 m) in a controlled housing facility with large animal cubicle at room temperature 22-24° C. with 12 hours light-dark cycle. The pigs were fed with standardized food 1 kg/day (Harlan Teklad Vegetarian Pig/Sow Grower)) and provided water ad libitum.
Animals received catheters and a jejunal stoma during a surgical procedure. During midline laparotomy, catheters were placed into the abdominal aorta for blood sampling, and in the caval vein for administering post-surgery medication and experiment related tracer infusions. A second arterial catheter was placed to monitor mean arterial blood pressure (MAP). A Swan ganz catheter (5 Fr, #132F5, Edwards life sciences, Irvine, Calif., USA) was placed via the right jugular vein to monitor mean pulmonary blood pressure (MPAP). Both preoperative and postoperative cares were standardized. During the recovery period (7-10 days) animals were accustomed to a small movable cage (0.9×0.5×0.3 m). The experiments were performed in this cage on awake animals. This study was approved by the animal experiment ethics committee of University of Arkansas Medical Sciences.
For the induction of sepsis, a live Pseudomonas aeruginosa (PM) human strain is used (IRS 12-4-4, Shriners burns institute, University of Texas Medical Branch, Galveston). Originally, this PM strain was isolated from a burnt patient at Brook Army Medical Center in San Antonio, Tex. Based on pilot virulence experiment, 10^9 Colony Forming Units per hour (CFU/hour) in a volume of 1 ml 0.9% NaCl solution was needed to obtain similar cardiovascular responses and hemodynamic variables with characteristics of severe hyperdynamic sepsis. Hemodynamics was continuously monitored to ensure that the hyperdynamic state was kept in the expected ranges for severe sepsis (body temp increase of 2-3° C., respiratory rate increased, MPAP increased but <35 mmHg, heart rate increased but <200 BPM).
The experiment started after a recovery period of 7-10 days. Four hours after the last food intake (half of the daily amount: 0.5 kg), animals were selected from the Sepsis group or the Healthy group in a randomized fashion. […] At T=0 h, sepsis was induced to the sepsis group by continuous infusion of Pseudomonas aeruginosa (PM, 10^9 CFU/ml/hour), while the Healthy group received an equal volume of 0.9% NaCl solution. Fluid resuscitation (30 ml/kg bw/hour) was also started at T=0 h and hemodynamics were monitored continuously. The results for the primed-continuous tracer protocol (PC) and the pulse tracer protocol were compared between 17 and 18 hours after the start of Pseudomonas aeruginosa. At t=18 h, the pigs were euthanized with 125 mg/k pentobarbital sodium and 16 mg phenytoin sodium (Euthanasol®).
Two stable isotopes of Phe: L-[ring-^13C6]-Phe and L-[^15N]-Phe (Cambridge Isotopes, Andover, Mass.) were used as tracers to study whole body rate of appearances of Phe (WbRa) with two tracer infusion protocols. Phe has been used to determine whole body protein breakdown. Previously studies were conducted based on the prime amount and tracer infusion rates. For the primed-continuous infusion protocol (PC), L-[ring-^13C6]-Phe was used. The prime (1.58 μmol/kg bw) and infusion (4.32 μmol/kg bw/hour) was given respectively in a volume of 2 ml/kg bw and 2 ml/kg bw/hour. It started 12 hours after the start of Pseudomonas aeruginosa, which is also 5 hours before the pulse protocol (PULSE). The L-[^15N]-Phe (26.3 μmol/kg bw in a volume 0.5 ml/kg bw) was used for the pulse protocol. All tracers are given via the central caval vein catheter.
Blood samples were taken and directly cooled on ice. The blood samples were processed within one hour. For amino acid concentration and enrichment analysis, heparinized blood was centrifuged at 4° C., 8000 G for 5 minutes. […]

For `N[C@@H](Cc1ccccc1)C(=O)O` [Phe, phenylalanine], the “k02 proportionality constant, mean value” (Healthy pigs) was 0.033 min⁻¹, the “k12 proportionality constant, mean value” (Healthy pigs) was 0.051 min⁻¹ and the “k21 proportionality constant, mean value” (Healthy pigs) was 0.115 min⁻¹. The “EC Phe pool (extracellular Phe pool, Q1)” value (Healthy pigs n=9) was 44 ± 2.2 μmol/kg BW, the “Flux of Phe between intra- and extracellular pool (F12, F21)” value (Healthy pigs n=9) was 5.02 ± 0.40 μmol/kg BW/min and the “Frac. irr. loss (fractional irreversible loss of Phe from the intracellular pool, k02)” value (Healthy pigs n=9) was 3.33 ± 0.21 %/min. The “IC Phe pool (intracellular Phe pool, Q2)” value (Healthy pigs n=9) was 105 ± 8.0 μmol/kg BW, the “IC Phe release (fractional intracellular release to extracellular pool, k12)” value (Healthy pigs n=9) was 5.09 ± 0.69 %/min and the “IC Phe uptake (fractional intracellular uptake from extracellular pool, k21)” value (Healthy pigs n=9) was 11.5 ± 0.71 %/min. For the same molecule, the “Irr. loss (irreversible loss of Phe from the intracellular pool, F02)” value (Healthy pigs n=9) was 3.38 ± 0.10 μmol/kg BW/min, the “Q1 plasma pool size, mean value” (Healthy pigs) was 1121 µmol and the “k02 proportionality constant, mean value” (Sepsis pigs) was 0.028 min⁻¹. For the same molecule, the “k12 proportionality constant, mean value” (Sepsis pigs) was 0.044 min⁻¹, the “k21 proportionality constant, mean value” (Sepsis pigs) was 0.105 min⁻¹ and the “EC Phe pool (extracellular Phe pool, Q1)” value (Sepsis pigs n=13) was 63 ± 5.5 μmol/kg BW. For the same molecule, the “Flux of Phe between intra- and extracellular pool (F12, F21)” value (Sepsis pigs n=13) was 6.86 ± 0.42 μmol/kg BW/min, the “Frac. irr. loss (fractional irreversible loss of Phe from the intracellular pool, k02)” value (Sepsis pigs n=13) was 2.83 ± 0.15 %/min and the “IC Phe pool (intracellular Phe pool, Q2)” value (Sepsis pigs n=13) was 157 ± 8.2 μmol/kg BW. For the same molecule, the “IC Phe release (fractional intracellular release to extracellular pool, k12)” value (Sepsis pigs n=13) was 4.43 ± 0.25 %/min, the “IC Phe uptake (fractional intracellular uptake from extracellular pool, k21)” value (Sepsis pigs n=13) was 10.6 ± 0.76 %/min and the “Irr. loss (irreversible loss of Phe from the intracellular pool, F02)” value (Sepsis pigs n=13) was 4.33 ± 0.16 μmol/kg BW/min. The “Q1 plasma pool size, mean value” (Sepsis pigs) was 1655 µmol and the “intracellular pool relative to extracellular pool” value (pigs) was 2.2 times.
